Measurements published in patent US8598365B2, “Herbicides” (Syngenta Limited, priority 2007, dated 2013).

Columns and labels:
Assay type in all cases: in vivo
[1] = system: Setaria faberi (SETFA); assay: Example A post-emergence herbicidal activity; settings: rate 125 g/ha, evaluated 14 or 15 days later
Description: (§1) Seeds of a variety of test species were sown in standard soil in pots. After cultivation for one day (pre-emergence) or after 10 days cultivation (post-emergence) under controlled conditions in a glasshouse, the plants were sprayed with an aqueous spray solution derived from the formulation of the technical active ingredient in 0.6 ml acetone and 45 ml formulation solution containing 10.6% Emulsogen EL (Registry number 61791-12-6), 42.2% N-methylpyrrolidone, 42.2% dipropylene glycol monomethyl ether (Registry number 34590-94-8) and 0.2% X-77 (Registry number 11097-66-8). The test plants were then grown in a greenhouse under optimum conditions until, 14 or 15 days later for post-emergence and 19 or 20 days for pre-emergence, the test was evaluated (100=total damage to plant; 0=no damage to plant). Alopecurus myosuroides (ALOMY), Avena fatua (AVEFA), Lolium perenne (LOLPE), Setaria faberi (SETFA), Digitaria sanguinalis (DIGSA), Echinochloa crus-galli (ECHCG)

[2] = system: Avena fatua (AVEFA); assay: Example A post-emergence herbicidal activity; settings: rate 125 g/ha, evaluated 14 or 15 days later
Description: as §1

[3] = system: Echinochloa crus-galli (ECHCG); assay: Example A post-emergence herbicidal activity; settings: rate 125 g/ha, evaluated 14 or 15 days later
Description: as §1

[4] = system: Alopecurus myosuroides (ALOMY); assay: Example A post-emergence herbicidal activity; settings: rate 125 g/ha, evaluated 14 or 15 days later
Description: as §1

[5] = system: Digitaria sanguinalis (DIGSA); assay: Example A post-emergence herbicidal activity; settings: rate 125 g/ha, evaluated 14 or 15 days later
Description: as §1

[6] = system: Lolium perenne (LOLPE); assay: Example A post-emergence herbicidal activity; settings: rate 125 g/ha, evaluated 14 or 15 days later
Description: as §1

[7] = system: Setaria faberi (SETFA); assay: Example A pre-emergence herbicidal activity; settings: rate 250 g/ha, evaluated 19 or 20 days later
Description: as §1

[8] = system: Avena fatua (AVEFA); assay: Example A pre-emergence herbicidal activity; settings: rate 250 g/ha, evaluated 19 or 20 days later
Description: as §1

[9] = system: Echinochloa crus-galli (ECHCG); assay: Example A pre-emergence herbicidal activity; settings: rate 250 g/ha, evaluated 19 or 20 days later
Description: as §1

[10] = system: Alopecurus myosuroides (ALOMY); assay: Example A pre-emergence herbicidal activity; settings: rate 250 g/ha, evaluated 19 or 20 days later
Description: as §1

[11] = system: Digitaria sanguinalis (DIGSA); assay: Example A pre-emergence herbicidal activity; settings: rate 250 g/ha, evaluated 19 or 20 days later
Description: as §1

[12] = system: Lolium perenne (LOLPE); assay: Example A pre-emergence herbicidal activity; settings: rate 250 g/ha, evaluated 19 or 20 days later
Description: as §1

## COc1ccc(-c2nc(C3C(=O)[C@@H]4CC[C@@H](C4)C3=O)c(C)s2)cn1 (some centres unmarked) [Compound T18]
[1]
  Post-Emergence Activity SETFA (100=total damage to plant; 0=no damage to plant): 60
[2]
  Post-Emergence Activity AVEFA (100=total damage to plant; 0=no damage to plant): 30
[3]
  Post-Emergence Activity ECHCG (100=total damage to plant; 0=no damage to plant): 50
[4]
  Post-Emergence Activity ALOMY (100=total damage to plant; 0=no damage to plant): 40
[5]
  Post-Emergence Activity DIGSA (100=total damage to plant; 0=no damage to plant): 60
[6]
  Post-Emergence Activity LOLPE (100=total damage to plant; 0=no damage to plant): 20
[7]
  Pre-Emergence Activity SETFA (100=total damage to plant; 0=no damage to plant): 20
[8]
  Pre-Emergence Activity AVEFA (100=total damage to plant; 0=no damage to plant): 0
[9]
  Pre-Emergence Activity ECHCG (100=total damage to plant; 0=no damage to plant): 20
[10]
  Pre-Emergence Activity ALOMY (100=total damage to plant; 0=no damage to plant): 0
[11]
  Pre-Emergence Activity DIGSA (100=total damage to plant; 0=no damage to plant): 30
[12]
  Pre-Emergence Activity LOLPE (100=total damage to plant; 0=no damage to plant): 0

## Cc1sc(-c2ccc(Cl)cc2)nc1C1C(=O)[C@@H]2CC[C@@H](C2)C1=O (some centres unmarked) [Compound T17]
[1]
  Post-Emergence Activity SETFA (100=total damage to plant; 0=no damage to plant): 80
[2]
  Post-Emergence Activity AVEFA (100=total damage to plant; 0=no damage to plant): 50
[3]
  Post-Emergence Activity ECHCG (100=total damage to plant; 0=no damage to plant): 90
[4]
  Post-Emergence Activity ALOMY (100=total damage to plant; 0=no damage to plant): 70
[5]
  Post-Emergence Activity DIGSA (100=total damage to plant; 0=no damage to plant): 80
[6]
  Post-Emergence Activity LOLPE (100=total damage to plant; 0=no damage to plant): 40
[7]
  Pre-Emergence Activity SETFA (100=total damage to plant; 0=no damage to plant): 100
[8]
  Pre-Emergence Activity AVEFA (100=total damage to plant; 0=no damage to plant): 100
[9]
  Pre-Emergence Activity ECHCG (100=total damage to plant; 0=no damage to plant): 100
[10]
  Pre-Emergence Activity ALOMY (100=total damage to plant; 0=no damage to plant): 100
[11]
  Pre-Emergence Activity DIGSA (100=total damage to plant; 0=no damage to plant): 100
[12]
  Pre-Emergence Activity LOLPE (100=total damage to plant; 0=no damage to plant): 100

## Cc1[se]c(-c2ccc(Cl)cc2)nc1C1C(=O)[C@@H]2CC[C@@H](C2)C1=O (some centres unmarked) [Compound T1, 3-[2-(4-chlorophenyl)-5-methylselenazol-4-yl]bicyclo[3.2.1]octane-2,4-dione]
[1]
  Post-Emergence Activity SETFA (100=total damage to plant; 0=no damage to plant): 90
[2]
  Post-Emergence Activity AVEFA (100=total damage to plant; 0=no damage to plant): 70
[3]
  Post-Emergence Activity ECHCG (100=total damage to plant; 0=no damage to plant): 100
[4]
  Post-Emergence Activity ALOMY (100=total damage to plant; 0=no damage to plant): 70
[5]
  Post-Emergence Activity DIGSA (100=total damage to plant; 0=no damage to plant): 80
[6]
  Post-Emergence Activity LOLPE (100=total damage to plant; 0=no damage to plant): 30
[7]
  Pre-Emergence Activity SETFA (100=total damage to plant; 0=no damage to plant): 70
[8]
  Pre-Emergence Activity AVEFA (100=total damage to plant; 0=no damage to plant): 20
[9]
  Pre-Emergence Activity ECHCG (100=total damage to plant; 0=no damage to plant): 60
[10]
  Pre-Emergence Activity ALOMY (100=total damage to plant; 0=no damage to plant): 60
[11]
  Pre-Emergence Activity DIGSA (100=total damage to plant; 0=no damage to plant): 60
[12]
  Pre-Emergence Activity LOLPE (100=total damage to plant; 0=no damage to plant): 80

## Cc1sc(-c2ccc(Br)cc2)nc1C1C(=O)[C@@H]2CC[C@@H](C2)C1=O (some centres unmarked) [Compound T15]
[1]
  Post-Emergence Activity SETFA (100=total damage to plant; 0=no damage to plant): 100
[2]
  Post-Emergence Activity AVEFA (100=total damage to plant; 0=no damage to plant): 90
[3]
  Post-Emergence Activity ECHCG (100=total damage to plant; 0=no damage to plant): 70
[4]
  Post-Emergence Activity ALOMY (100=total damage to plant; 0=no damage to plant): 90
[5]
  Post-Emergence Activity DIGSA (100=total damage to plant; 0=no damage to plant): 100
[6]
  Post-Emergence Activity LOLPE (100=total damage to plant; 0=no damage to plant): 50
[7]
  Pre-Emergence Activity SETFA (100=total damage to plant; 0=no damage to plant): 100
[9]
  Pre-Emergence Activity ECHCG (100=total damage to plant; 0=no damage to plant): 100
[10]
  Pre-Emergence Activity ALOMY (100=total damage to plant; 0=no damage to plant): 90
[11]
  Pre-Emergence Activity DIGSA (100=total damage to plant; 0=no damage to plant): 100
[12]
  Pre-Emergence Activity LOLPE (100=total damage to plant; 0=no damage to plant): 100

## Cc1sc(-c2ccc(Cl)nc2)nc1C1C(=O)[C@@H]2CC[C@@H](C2)C1=O (some centres unmarked) [Compound T16]
[1]
  Post-Emergence Activity SETFA (100=total damage to plant; 0=no damage to plant): 60
[2]
  Post-Emergence Activity AVEFA (100=total damage to plant; 0=no damage to plant): 40
[3]
  Post-Emergence Activity ECHCG (100=total damage to plant; 0=no damage to plant): 50
[4]
  Post-Emergence Activity ALOMY (100=total damage to plant; 0=no damage to plant): 20
[5]
  Post-Emergence Activity DIGSA (100=total damage to plant; 0=no damage to plant): 70
[6]
  Post-Emergence Activity LOLPE (100=total damage to plant; 0=no damage to plant): 20
[7]
  Pre-Emergence Activity SETFA (100=total damage to plant; 0=no damage to plant): 80
[8]
  Pre-Emergence Activity AVEFA (100=total damage to plant; 0=no damage to plant): 20
[9]
  Pre-Emergence Activity ECHCG (100=total damage to plant; 0=no damage to plant): 70
[10]
  Pre-Emergence Activity ALOMY (100=total damage to plant; 0=no damage to plant): 10
[11]
  Pre-Emergence Activity DIGSA (100=total damage to plant; 0=no damage to plant): 80
[12]
  Pre-Emergence Activity LOLPE (100=total damage to plant; 0=no damage to plant): 20

## Cc1sc(-c2ccc(Cl)cc2)cc1C1C(=O)[C@@H]2CC[C@@H](C2)C1=O (some centres unmarked) [Compound T23]
[1]
  Post-Emergence Activity SETFA (100=total damage to plant; 0=no damage to plant): 100
[2]
  Post-Emergence Activity AVEFA (100=total damage to plant; 0=no damage to plant): 70
[3]
  Post-Emergence Activity ECHCG (100=total damage to plant; 0=no damage to plant): 90
[4]
  Post-Emergence Activity ALOMY (100=total damage to plant; 0=no damage to plant): 80
[5]
  Post-Emergence Activity DIGSA (100=total damage to plant; 0=no damage to plant): 90
[6]
  Post-Emergence Activity LOLPE (100=total damage to plant; 0=no damage to plant): 70
[7]
  Pre-Emergence Activity SETFA (100=total damage to plant; 0=no damage to plant): 0
[8]
  Pre-Emergence Activity AVEFA (100=total damage to plant; 0=no damage to plant): 50
[9]
  Pre-Emergence Activity ECHCG (100=total damage to plant; 0=no damage to plant): 0
[10]
  Pre-Emergence Activity ALOMY (100=total damage to plant; 0=no damage to plant): 30
[11]
  Pre-Emergence Activity DIGSA (100=total damage to plant; 0=no damage to plant): 0
[12]
  Pre-Emergence Activity LOLPE (100=total damage to plant; 0=no damage to plant): 0

## CCc1sc(-c2ccc(Cl)cc2)nc1C1C(=O)[C@@H]2CC[C@@H](C2)C1=O (some centres unmarked) [Compound T19, 3-[2-(4-chlorophenyl)-5-ethylthiazol-4-yl]bicyclo[3.2.1]octane-2,4-dione]
[1]
  Post-Emergence Activity SETFA (100=total damage to plant; 0=no damage to plant): 100
[2]
  Post-Emergence Activity AVEFA (100=total damage to plant; 0=no damage to plant): 100
[3]
  Post-Emergence Activity ECHCG (100=total damage to plant; 0=no damage to plant): 100
[4]
  Post-Emergence Activity ALOMY (100=total damage to plant; 0=no damage to plant): 100
[5]
  Post-Emergence Activity DIGSA (100=total damage to plant; 0=no damage to plant): 100
[6]
  Post-Emergence Activity LOLPE (100=total damage to plant; 0=no damage to plant): 80
[7]
  Pre-Emergence Activity SETFA (100=total damage to plant; 0=no damage to plant): 100
[8]
  Pre-Emergence Activity AVEFA (100=total damage to plant; 0=no damage to plant): 100
[9]
  Pre-Emergence Activity ECHCG (100=total damage to plant; 0=no damage to plant): 100
[10]
  Pre-Emergence Activity ALOMY (100=total damage to plant; 0=no damage to plant): 100
[11]
  Pre-Emergence Activity DIGSA (100=total damage to plant; 0=no damage to plant): 100
[12]
  Pre-Emergence Activity LOLPE (100=total damage to plant; 0=no damage to plant): 100
